Each block holds one molecule with its values, some of them ahead of it.
Test: solvent given as SMILES

fluorescence lifetime (in ClC(Cl)Cl): 1.35 ns
SMILES: CCCCc1cc(-c2cccc(COC)c2)oc1-c1cccc(-c2cc(CCCC)c(-c3cccc(-c4cc(CCCC)c(-c5cccc(-c6oc(-c7cccc(-c8oc(-c9cccc(-c%10oc(-c%11cccc(COC)c%11)cc%10CCCC)c9)cc8CCCC)c7)cc6CCCC)c5)o4)c3)o2)c1

fluorescence lifetime (in ClCCl): 12.6 ns
SMILES: CCN(CC)c1ccc2cc(-c3nc4c5ccccc5c5ccccc5c4n3-c3ccc(C(C)(C)C)cc3)c(=O)oc2c1

fluorescence lifetime (in C1CCOC1): 15.2 ns | fluorescence lifetime (in CCO): 16.3 ns | fluorescence lifetime (in CN(C)C=O): 15.8 ns
SMILES: Nc1cccc2c1C(=O)NC2=O

fluorescence lifetime (in ClCCl): 3.8 ns
SMILES: CC(C)(C)c1ccc(-n2c(-c3ccc(N(c4ccc(-c5ccc(N(c6ccc(-c7nc8c9ccccc9c9ccccc9c8n7-c7ccc(C(C)(C)C)cc7)cc6)c6ccc(-c7nc8c9ccccc9c9ccccc9c8n7-c7ccc(C(C)(C)C)cc7)cc6)cc5)cc4)c4ccc(-c5nc6c7ccccc7c7ccccc7c6n5-c5ccc(C(C)(C)C)cc5)cc4)cc3)nc3c4ccccc4c4ccccc4c32)cc1

fluorescence lifetime (in CCCCCCC): 112 ns
SMILES: COc1nc(Nc2cc3ccc4cccc5ccc(c2)c3c45)nc(OC)n1

fluorescence lifetime (in C1CCCCC1): 2.7 ns | fluorescence lifetime (in C1CCOC1): 4.91 ns | fluorescence lifetime (in C1COCCO1): 2.38 ns | fluorescence lifetime (in CC#N): 0.558 ns | fluorescence lifetime (in CCOC(C)=O): 2.46 ns | fluorescence lifetime (in CN(C)C=O): 2.22 ns
SMILES: Cc1cccc(Nc2ccccc2C(=O)O)c1C

fluorescence lifetime (in ClCCl): 1.6 ns
SMILES: COc1ccc2cc(/C=C/C3=C4CCc5ccccc5C4=[O+][B-](F)(F)O3)ccc2c1

fluorescence lifetime (in CCCCCC): 6.61 ns | fluorescence lifetime (in CO): 6.76 ns | fluorescence lifetime (in ClCCl): 6.23 ns
SMILES: CC1=C2C=CC(C)=[N+]2[B-](F)(F)n2cccc21

fluorescence lifetime (in ClCCl): 1.23 ns
SMILES: COC(=O)c1cc(=O)n(C)c2cc(-c3ccccc3N(C)C)sc12

fluorescence lifetime (in C1CCOC1): 0.442 ns | fluorescence lifetime (in C1COCCO1): 0.481 ns | fluorescence lifetime (in CC#N): 0.978 ns | fluorescence lifetime (in CCCCCCCCCCCCO): 1.36 ns | fluorescence lifetime (in CCCCCCCCCCO): 1.28 ns | fluorescence lifetime (in CCCCCCCCO): 1.25 ns | fluorescence lifetime (in CCCCCCO): 1.22 ns | fluorescence lifetime (in CCCCO): 1.12 ns | fluorescence lifetime (in CCO): 1.36 ns | fluorescence lifetime (in CCOC(C)=O): 0.476 ns | fluorescence lifetime (in CN(C)C=O): 0.838 ns | fluorescence lifetime (in CO): 1.78 ns | fluorescence lifetime (in CS(C)=O): 1.43 ns | fluorescence lifetime (in O): 2.29 ns | fluorescence lifetime (in c1ccccc1): 0.466 ns
SMILES: O=C1CCCc2c1[nH]c1cc3c(cc21)OCO3

fluorescence lifetime (in ClCCl): 1.61 ns
SMILES: FC(F)(F)c1ccc(-n2c(-c3ccc(N(c4ccc(-c5ccc(N(c6ccc(-c7nc8c9ccccc9c9ccccc9c8n7-c7ccc(C(F)(F)F)cc7)cc6)c6ccc(-c7nc8c9ccccc9c9ccccc9c8n7-c7ccc(C(F)(F)F)cc7)cc6)cc5)cc4)c4ccc(-c5nc6c7ccccc7c7ccccc7c6n5-c5ccc(C(F)(F)F)cc5)cc4)cc3)nc3c4ccccc4c4ccccc4c32)cc1

The remaining lines, values behind:

SMILES: O=S(=O)(c1ccc(N2c3ccccc3N(c3ccccc3)c3ccccc32)cc1)c1ccc(N2c3ccccc3N(c3ccccc3)c3ccccc32)cc1
fluorescence lifetime (in Cc1ccccc1): 5.6 ns | fluorescence lifetime (in c1cc(-n2c3ccccc3c3ccccc32)cc(-n2c3ccccc3c3ccccc32)c1): 10 ns

SMILES: COc1ccc(-c2c3cc4cc(C)sc4cc3c(C#Cc3ccccc3)c3cc4cc(C)sc4cc23)cc1
fluorescence lifetime (in ClCCl): 10.8 ns

SMILES: COc1ccc2nc(N)sc2c1
fluorescence lifetime (in CC#N): 4.4 ns | fluorescence lifetime (in ClCCl): 3.86 ns

SMILES: c1cc2c3c(c1)-c1ccc4c5c(ccc(c15)B3c1ccc3c5c(ccc-2c15)CC3)CC4
fluorescence lifetime (in Cc1ccccc1): 5.28 ns

SMILES: CCN(CC)c1ccc(OC)c(C=O)c1
fluorescence lifetime (in CC#N): 12.5 ns | fluorescence lifetime (in CC(C)O): 0.96 ns | fluorescence lifetime (in CCCCCC): 7.78 ns | fluorescence lifetime (in CCOC(C)=O): 12.5 ns | fluorescence lifetime (in CS(C)=O): 20.9 ns | fluorescence lifetime (in Cc1ccccc1): 12.5 ns | fluorescence lifetime (in ClCCl): 17 ns

SMILES: N#C[Se]CCCCCOc1ccc2ccc(=O)oc2c1
fluorescence lifetime (in C1CCCCC1): 0.16 ns | fluorescence lifetime (in C1CCOC1): 1.17 ns | fluorescence lifetime (in C1COCCO1): 0.17 ns | fluorescence lifetime (in CC#N): 0.56 ns | fluorescence lifetime (in CCCCCCC): 0.16 ns | fluorescence lifetime (in CCO): 0.43 ns | fluorescence lifetime (in CN(C)C=O): 1.02 ns | fluorescence lifetime (in CO): 0.44 ns | fluorescence lifetime (in O): 1.75 ns | fluorescence lifetime (in OCCO): 1.46 ns

SMILES: C#Cc1ccc2ccc3cccc4ccc1c2c34
fluorescence lifetime (in C1CCCCC1): 14.9 ns | fluorescence lifetime (in CC#N): 13.4 ns | fluorescence lifetime (in CO): 17.8 ns | fluorescence lifetime (in ClCCl): 20.5 ns

SMILES: Cc1ccc(C)n1-c1ccccc1
fluorescence lifetime (in CC#N): 5 ns

SMILES: c1ccc2c(c1)c1ccccc1c1[nH]c(-c3ccc(-c4nc5c6ccccc6c6ccccc6c5[nH]4)cc3)nc21
fluorescence lifetime (in CS(C)=O): 1.25 ns

SMILES: CN(C)c1ccc(/C=C/C=C2\CC/C(=C\c3ccc(N(C)C)cc3)C2=O)cc1
fluorescence lifetime (in C1CCOC1): 0.42 ns | fluorescence lifetime (in CC#N): 0.91 ns | fluorescence lifetime (in CC(C)=O): 1.15 ns | fluorescence lifetime (in CC(C)O): 1.24 ns | fluorescence lifetime (in CCCCO): 1.25 ns | fluorescence lifetime (in CCCCOC(C)=O): 0.63 ns | fluorescence lifetime (in CCCO): 1.13 ns | fluorescence lifetime (in CCO): 0.82 ns | fluorescence lifetime (in CCOC(=O)c1ccccc1): 0.83 ns | fluorescence lifetime (in CCOC(C)=O): 0.71 ns | fluorescence lifetime (in CCOCC): 0.31 ns | fluorescence lifetime (in CN(C)C=O): 1.32 ns | fluorescence lifetime (in CO): 0.3 ns | fluorescence lifetime (in CS(C)=O): 1.4 ns | fluorescence lifetime (in Cc1ccccc1): 0.36 ns | fluorescence lifetime (in ClC(Cl)(Cl)Cl): 0.29 ns | fluorescence lifetime (in ClC(Cl)Cl): 0.98 ns | fluorescence lifetime (in ClCCl): 1.13 ns | fluorescence lifetime (in Clc1ccccc1Cl): 0.83 ns | fluorescence lifetime (in S=C=S): 0.43 ns | fluorescence lifetime (in c1ccccc1): 0.38 ns | fluorescence lifetime (in c1ccncc1): 1.26 ns

SMILES: CCCCCCCCN1c2ccccc2Sc2cc(/C=C/c3ccc(N(c4ccc(/C=C/c5ccc6c(c5)Sc5ccccc5N6CCCCCCCC)cc4)c4ccc(/C=C/c5ccc(/C=C/c6ccc(N(c7ccc(/C=C/c8ccc(N(c9ccccc9)c9ccccc9)cc8)cc7)c7ccc(/C=C/c8ccc(N(c9ccccc9)c9ccccc9)cc8)cc7)cc6)c6nsnc56)cc4)cc3)ccc21
fluorescence lifetime (in C1CCOC1): 1.76 ns | fluorescence lifetime (in CCOC(C)=O): 1.79 ns | fluorescence lifetime (in Cc1ccccc1): 3.49 ns | fluorescence lifetime (in ClC(Cl)Cl): 2.38 ns | fluorescence lifetime (in ClCCl): 1.75 ns

SMILES: C[Si]1(C)c2ccc(C#Cc3ccccc3)cc2C=Cc2cc(C#Cc3ccccc3)ccc21
fluorescence lifetime (in ClCCl): 3.8 ns

SMILES: CN(C)c1ccc2cc3ccc(=[N+](C)C)cc-3oc2c1
fluorescence lifetime (in CCO): 2.26 ns | fluorescence lifetime (in O): 1.86 ns

SMILES: COc1ccc2cc([C@H](C)C(=O)O)ccc2c1
fluorescence lifetime (in C1CCOC1): 11 ns | fluorescence lifetime (in CC#N): 9.96 ns | fluorescence lifetime (in CC(C)O): 10.8 ns | fluorescence lifetime (in CCCCO): 11.4 ns | fluorescence lifetime (in CCO): 10.4 ns | fluorescence lifetime (in CO): 8.48 ns | fluorescence lifetime (in ClCCl): 6.93 ns | fluorescence lifetime (in O): 9.6 ns

SMILES: C(=C\c1ccc(-n2c3ccccc3c3ccccc32)cc1)/c1ccc(-c2ccc(/C=C/c3ccc(-n4c5ccccc5c5ccccc54)cc3)cc2)cc1
fluorescence lifetime (in Cc1ccccc1): 0.87 ns | fluorescence lifetime (in c1ccc2c(c1)c1ccccc1n2-c1ccc(-c2ccc(-n3c4ccccc4c4ccccc43)cc2)cc1): 1.3 ns

SMILES: CN(C)CCCN1c2ccccc2Sc2ccc(C(F)(F)F)cc21
fluorescence lifetime (in CC#N): 2.66 ns | fluorescence lifetime (in CO): 2.47 ns | fluorescence lifetime (in O): 3.17 ns

SMILES: F[B-]1(F)OC(c2ccc(Br)cc2)=Cc2ccc3ccccc3[n+]21
fluorescence lifetime (in ClC(Cl)Cl): 1.21 ns

SMILES: Cc1ccc2c(c1)C1(c3ccccc3Oc3ccccc31)c1cc(C)ccc1N2c1ccc(-c2nc(-c3ccccc3)cc(-c3ccccc3)n2)cc1
fluorescence lifetime (in O=P(c1ccccc1)(c1ccccc1)c1ccc2oc3ccc(P(=O)(c4ccccc4)c4ccccc4)cc3c2c1): 11 ns

SMILES: COc1cc2cc(C#Cc3ccc(/C=C(\C#N)C(=O)O)cc3)c(=O)oc2cc1OC
fluorescence lifetime (in CC#N): 1.16 ns

SMILES: COc1ccc(C#Cc2ccc(C#N)cc2)cc1
fluorescence lifetime (in C1COCCO1): 0.33 ns | fluorescence lifetime (in CC#N): 0.76 ns | fluorescence lifetime (in CCCCCC): 0.34 ns | fluorescence lifetime (in CCCCCCC): 0.35 ns | fluorescence lifetime (in CCCO): 0.6 ns | fluorescence lifetime (in CCOC(C)=O): 0.38 ns | fluorescence lifetime (in CS(C)=O): 1.1 ns | fluorescence lifetime (in ClC(Cl)Cl): 0.38 ns | fluorescence lifetime (in ClCCl): 0.46 ns

SMILES: c1cc2ccc3ccc(OP4(Oc5ccc6ccc7cccc8ccc5c6c78)=NP(Oc5ccc6ccc7cccc8ccc5c6c78)(Oc5ccc6ccc7cccc8ccc5c6c78)=NP(Oc5ccc6ccc7cccc8ccc5c6c78)(Oc5ccc6ccc7cccc8ccc5c6c78)=N4)c4ccc(c1)c2c34
fluorescence lifetime (in ClCCl): 2.5 ns

Reference: the Deep4Chem optical property database
